Literature values as cited in patent US9480691B1, “Topical liquid containing refined peanut oil for treating skin proliferation or inflammation disorders” (Hill Dermaceuticals, Inc., priority 2009, dated 2016).

Test system: hypothalamus-pituitary-adrenal (HPA) axis
Conditions: at effective and prescribed doses

CCC(=O)O[C@]1(C(=O)CCl)[C@@H](C)C[C@H]2[C@@H]3CCC4=CC(=O)C=C[C@]4(C)[C@@]3(F)[C@@H](O)C[C@@]21C [clobetasol propionate, (11β,16β)-21-chloro-9-fluoro-11-hydroxy-16-methyl-17-(1-oxo-propoxy)pregna-1,4-diene,3,10-dione]
effect on HPA axis: suppress the hypothalamus-pituitary-adrenal (HPA) axis
